pIC50: −log10 of the molar value. Like-named read-outs stand apart in the source and are kept apart here.
How the values were obtained:
estrogen receptor = target: T1, estrogen receptor (Homo sapiens, UniProt P03372); assay: In vitro estrogen receptor binding assay (competition with [^3 H]-17-β-estradiol); conditions: for IC50: Competition With 17-β-estradiol (0.8 nM), CHO cell cytosol
T1 construct: made in house; host or cells: Chinese Hamster Ovary (CHO) cells, ribosome-free cytosol
T1 sequence (P03372 1-595): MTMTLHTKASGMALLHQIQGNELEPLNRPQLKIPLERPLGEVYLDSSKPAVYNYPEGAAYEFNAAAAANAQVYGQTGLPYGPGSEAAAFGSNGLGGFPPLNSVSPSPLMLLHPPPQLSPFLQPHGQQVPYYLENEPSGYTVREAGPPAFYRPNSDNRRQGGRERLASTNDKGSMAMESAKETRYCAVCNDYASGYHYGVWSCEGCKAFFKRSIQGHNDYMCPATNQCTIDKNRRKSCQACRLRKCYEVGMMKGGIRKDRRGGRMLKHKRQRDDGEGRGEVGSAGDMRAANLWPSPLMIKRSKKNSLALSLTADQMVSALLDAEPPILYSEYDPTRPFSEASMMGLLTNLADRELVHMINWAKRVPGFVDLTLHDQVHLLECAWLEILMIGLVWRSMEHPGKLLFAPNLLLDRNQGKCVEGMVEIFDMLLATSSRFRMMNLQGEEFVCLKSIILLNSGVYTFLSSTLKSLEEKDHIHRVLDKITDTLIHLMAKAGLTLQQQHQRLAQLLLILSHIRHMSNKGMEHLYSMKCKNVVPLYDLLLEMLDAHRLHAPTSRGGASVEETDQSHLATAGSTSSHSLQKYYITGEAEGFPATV
Procedure: Cells were harvested by scraping the surface and then the cell suspension was placed on ice. […] The cytosol was then frozen and stored at -80° C. Protein concentration of the cytosol was estimated using the BCA assay with reference standard protein.
The plate was incubated at room temperature for 2.5 h. […] Samples were counted to 2% or 10 minutes, whichever occurs first. […] Also, wells containing radioactivity but no cytosol were processed with charcoal to estimate unremovable DPM of [^3 H]
For a description of these methods, see Hulme, E. C., ed. 1992. Receptor-Ligand Interactions: A Practical Approach. IRL Press, New York.(see especially chapter 8).

Ishikawa cells = assay: Ishikawa Cell Alkaline Phosphatase Assay; format: cell-based; conditions: Homo sapiens, 48 h
Procedure: Ishikawa Cell Alkaline Phosphatase Assay
Cell Maintenance and Treatment:
Ishikawa cells were maintained in DMEM/F12 (50%:50%) containing phenol red+10% fetal bovine serum and the medium was supplemented with 2 mM Glutamax, 1% Pen/Strap and 1 mM sodium pyruvate. Five days prior to the beginning of each experiment (treatment of cells) the medium was changed to phenol red-free DMEM/F12+10% dextran coated charcoal stripped serum. On the day before treatment, cells were harvested using 0.5% trypsin/EDTA and plated at a density of 5×10^4 cells/well in 96-well tissue culture plates. […] Cells were treat for 48 h prior to assay. […] Sample population for at each dose was n=8.
Alkaline Phosphatase Assay:
At the end of 48 h the media is aspirated and cells are washed three times with phosphate buffered saline (PBS). 50 μL of lysis buffer (0.1 M Tris-HCl, pH 9.8, 0.2% Triton X-100) is added to each well. Plates are placed at -80° C. for a minimum of 15 minutes. Plates are thawed at 37° C. followed by the addition of 150 μL of 0.1 M Tris-HCl, pH 9.8, containing 4 mM para-nitrophenylphosphate (pNPP) to each well (final concentration, 3 mM pNPP).
Absorbance and slope calculations were made using the KineticCalc Application program (Bio-Tek Instruments, Inc., Winooski, Vt.). Results are expressed as the mean±S.D. of the rate of enzyme reaction (slope) averaged over the linear portion of the kinetic reaction curve (optical density readings every 5 minutes for 30 minutes absorbance reading).
A description of these methods is described by Holinka, C.

human estrogen receptor = target: T2, human estrogen receptor (Homo sapiens, UniProt P03372); assay: 2X VIT ERE Transfection Assay (luciferase, CHO cells stably transfected with human estrogen receptor); format: cell-based; conditions: 24 h
T2 construct: expressed in transfected cells
Procedure: 2X VIT ERE Transfection Assay
Cell Maintenance and Treatment
Chinese Hamster Ovary cells (CHO) which had been stably transfected with the human estrogen receptor were maintained in DMEM+10% fetal bovine serum (FBS). 48 h prior to treatment the growth medium was replaced with DMEM lacking phenol red+10% dextran coated charcoal stripped FBS (treatment medium). Cells were plated at a density of 5000 cells/well in 96-well plates containing 200 μL of medium/well.
Calcium Phosphate Transfection
Reporter DNA (Fromega plasmid pGL2 containing two tandem copies of the vitellogenin ERE in front of the minimal thymidine kinase promoter driving the luciferase gene) was combined with the β-galactosidase expression plasmid pCH110 (Pharmacia) and carrier DNA (pTZ18U) in the following ratio:
20 μg of DNA/1 mL of transfection solution
The DNA (20 μg) was dissolved in 500 μL of 250 mM sterile CaCl2 and added dropwise to 500 μL of 2X HeBS (0.28 M NaCl, 50 mM HEPES, 1.5 mM Na2 HPO4, pH 7.05) and incubated at room temperature for 20 minutes. 20 μL of this mixture was added to each well of cells and remained on the cells for 16 h. […] Each treatment condition was performed on 8 wells (n=8) which were incubated for 24 h prior to the luciferase assay.
After 24 h exposure to compounds, the media was removed and each well washed with 2X with 125 μL of PBS lacking Mg^++ and Ca^++. […] The luciferan substrate (Promega) was added in 100 μL aliquots to each well automatically by the luminometer and the light produced (relative light units) was read 10 seconds after addition.
To the remaining 5 μL of lysate 45 μL of PBS was added. […] The plates were analyzed on a Molecular Devices specrophotometric plate reader at 410 nm. […]
The luciferase data was generated as relative light units (RLUs) accumulated during a 10 second measurement and automatically transferred to a JMP (SAS Inc.) file where background RLUs were subtracted. […] The mean and standard deviations were determined from a n=8 for each treatment. […]

uterus = conditions: background statement; cited from earlier work
bone = conditions: background statement; cited from earlier work
[1] = Test articles at 10^-6 M, alone, percent of response related to 1 nM 17β-estradiol (control), read-out: % Activation

Row | SMILES | IC50 (estrogen receptor) | activation at 1 µM (Ishikawa cells; [1]) | activation at 1 µM (human estrogen receptor) | effect on the uterus (uterus) | effect on bone (bone) | pIC50 (estrogen receptor; read-out: IC50) | activation at 1 µM (Ishikawa cells)
1 | O=c1c2cccc(O)c2nc(-c2ccc(OCCN3CCCCC3)cc2)n1-c1ccc(O)cc1 [Example 16, 8-Hydroxy-3-(4-hydroxy-phenyl)-2-{4-[2-(piperidin-1-yl)-ethoxy]-phenyl}-3H-quinazolin-4-one] | Binding not detected at upper limit of assay | 0% | 14% |  |  |  | 
2 | O=C(c1ccc(OCCN2CCCCC2)cc1)c1c(-c2ccc(O)cc2)sc2cc(O)ccc12 [Raloxifene] |  | 5% |  | stimulate uterine growth in animal models to a lesser degree than Tamoxifen | sparing bone |  | 
3 | O=c1c2ccc(O)cc2nc(-c2ccc(O)cc2)n1-c1ccc(OCCN2CCCCC2)cc1 [Example 9, 7-Hydroxy-2-(4-hydroxy-phenyl)-3-{4-[2-(piperidin-1-yl)-ethoxy]-phenyl}-3H-quinazolin-4-one] |  | 0% | 72% |  |  | 5.19 | 
4 | C[C@]12CC[C@@H]3c4ccc(O)cc4CC[C@H]3[C@@H]1CC[C@@H]2O [17-β-estradiol, reference compound] |  | 100% |  |  |  |  | 
5 | CC/C(=C(\c1ccccc1)c1ccc(OCCN(C)C)cc1)c1ccccc1 [Tamoxifen] |  |  |  | partial agonist effects in the uterus | increase bone mass |  | 0%
6 | O=c1c2cccc(O)c2nc(-c2ccc(O)cc2)n1-c1ccc(OCCN2CCCCC2)cc1 [Example 21, 8-Hydroxy-2-(4-hydroxy-phenyl)-3-[4-(2-piperidin-1-yl-ethoxy)-phenyl]-3H-quinazolin-4-one] | Binding not detected at upper limit of assay | 0% | 6% |  |  |  | 

— patent US5948775A, “2- or 3-(substitutedaminoalkoxyphenyl)quinazolin-4-ones” (American Home Products Corporation, priority 1998, dated 1999)
